We go through 7 compounds from patent publication US20260184663A1, “INDENE COMPOUNDS, PHARMACEUTICAL COMPOSITIONS THEREOF, AND THEIR THERAPEUTIC APPLICATIONS” (NucMito Pharmaceuticals co. Ltd., priority 2022, published 2026).

Where two headings read alike, the source gives them in different places. A value given as a limit tells only on which side of the number the result lay.

Assay type in all cases: cell-based
The test system of experiment [1] is A549 (lung adenocarcinoma). Briefly: Antiproliferative activity (CCK-8 cell viability), A549. To be noted: Homo sapiens, 72 h, read-out: Antiproliferative activity in cancerous cells, A549 (inhibition of cell growth); for inhibition at 3.3 µM: Compound concentration: 3.3 μM; for inhibition at 10 µM: Compound concentration: 10 μM; for inhibition at 30 µM: Compound concentration: 30 μM. Summed up:
(§1)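 Cells grown in DMEM (HepG2, SW480), MEM (HeLa) or F-12K (A549), each with 10% FBS, then exposed to compound at 3.3, 10 or 30 μM for 72 h at 37 °C. CCK-8 absorbance at 450 nm; viability expressed as percent of DMSO-treated cells, graded as growth inhibition bands.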

The subject of the next experiment is HepG2 (liver cancer). Briefly: Antiproliferative activity (CCK-8 cell viability), HepG2. The following applies: Homo sapiens, 72 h, read-out: Antiproliferative activity in cancerous cells, HepG2 (inhibition of cell growth); for inhibition at 3.3 µM: Compound concentration: 3.3 μM; for inhibition at 10 µM: Compound concentration: 10 μM; for inhibition at 30 µM: Compound concentration: 30 μM. The method in brief: as §1

Experiment [2] deals with MDA-MB-231 (breast cancer). Briefly: Antiproliferative activity (CCK-8 cell viability), MDA-MB-231. The following applies: Homo sapiens, 72 h, read-out: Antiproliferative activity in cancerous cells, MDA-MB-231 (inhibition of cell growth); for inhibition at 3.3 µM: Compound concentration: 3.3 μM; for inhibition at 10 µM: Compound concentration: 10 μM; for inhibition at 30 µM: Compound concentration: 30 μM. Summed up:
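MDA-MB-231 breast cancer cells, grown in DMEM with 10% FBS, were plated in 96-well plates at 2,000-5,000 cells/well. Once attached, they were exposed to compound and incubated at 37° C. for 72 h. Viability was then measured with CCK-8 (10 μL per well, 4 h at 37° C.) by absorbance at 450 nm, relative to DMSO vehicle wells.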

Experiment [3] concerns A431 (epidermoid carcinoma). Briefly: Antiproliferative activity (CCK-8 cell viability), A431. The following applies: Homo sapiens, 72 h, read-out: Antiproliferative activity in cancerous cells, A431 (inhibition of cell growth); for inhibition at 3.3 µM: A-431, Compound concentration: 3.3 μM; for inhibition at 10 µM: A-431, Compound concentration: 10 μM; for inhibition at 30 µM: A-431, Compound concentration: 30 μM. Summed up: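 A431 epidermoid carcinoma cells grown in DMEM with 10% FBS were plated at 2,000-5,000 cells/well in 96-well plates. After attachment they were exposed to compound at 3.3 μM, 10 μM, or 30 μM for 72 h at 37° C. Viability was then assessed by CCK-8 against DMSO vehicle-treated wells.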

The subject of another experiment is SW480 (colon cancer). Briefly: Antiproliferative activity (CCK-8 cell viability), SW480. To be noted: Homo sapiens, 72 h; for inhibition at 3.3 µM: Compound concentration: 3.3 μM; for inhibition at 10 µM: Compound concentration: 10 μM; for inhibition at 30 µM: Compound concentration: 30 μM. The method in brief: as §1
For the next experiment, the system named is HeLa (cervical cancer). Briefly: Antiproliferative activity (CCK-8 cell viability), HeLa. The following applies: Homo sapiens, 72 h, read-out: Antiproliferative activity in cancerous cells, HELA (inhibition of cell growth); for inhibition at 3.3 µM: Compound concentration: 3.3 μM; for inhibition at 10 µM: Compound concentration: 10 μM; for inhibition at 30 µM: Compound concentration: 30 μM. Summed up: as §1

The test system of experiment [4] is B16F10 (malignant melanoma). Briefly: Antiproliferative activity (CCK-8 cell viability), B16F10. To be noted: Mus musculus, 72 h, read-out: Antiproliferative activity in cancerous cells, B16F10 (inhibition of cell growth); for inhibition at 3.3 µM: B16-F10, Compound concentration: 3.3 μM; for inhibition at 10 µM: B16-F10, Compound concentration: 10 μM; for inhibition at 30 µM: B16-F10, Compound concentration: 30 μM. The method in brief: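 B16F10 melanoma cells grown in DMEM with 10% FBS were plated in 96-well plates at 2,000-5,000 cells/well. After attachment they were exposed to compound in medium for 72 h at 37° C. CCK-8 solution (10 μL) was then added, and after 4 h at 37° C absorbance was read at 450 nm.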

Setting [5] is: read-out: Antiproliferative activity in cancerous cells, SW480 (inhibition of cell growth).

On to `CC1=C(CC(=O)O)c2cc(F)ccc2/C1=C\c1ccc(Cc2cc3ccccc3s2)cc1` [C312, (Z)-2-(1-(4-(Benzo[b]thiophen-2-ylmethyl)benzylidene)-5-fluoro-2-methyl-1H-inden-3-yl)acetic acid], for which the inhibition at 3.3 µM in experiment [1] is less than 30%; in the experiment with HepG2 (liver cancer) it was no less than 50%; in experiment [2], 30 to 50%; in experiment [3] it was no less than 50%; in the experiment on SW480 (colon cancer) (setting [5]), no less than 50%; with HeLa (cervical cancer), no less than 50%. Moreover, the inhibition at 3.3 µM in experiment [4] was no less than 50%. Also, the inhibition at 10 µM (in experiment [1]; in the experiment with HepG2 (liver cancer); in experiment [2]; in experiment [3]; in the experiment on SW480 (colon cancer) (setting [5]); in the experiment on HeLa (cervical cancer)) was no less than 50% throughout. In addition, the inhibition at 10 µM in experiment [4] was no less than 50%. The inhibition at 30 µM (in experiment [1]; in the experiment on HepG2 (liver cancer); in experiment [2]; in experiment [3]; with SW480 (colon cancer) (setting [5]); in the experiment with HeLa (cervical cancer)) was no less than 50% each time. In addition, the inhibition at 30 µM in experiment [4] is no less than 50%.

For the compound `O=C(O)CC1=C(Cc2ccc(Oc3ccc(F)cc3)cc2)/C(=C/c2ccc(Oc3ccc(F)cc3)cc2)c2ccc(F)cc21` [A107, (Z)-2-(5-Fluoro-2-(4-(4-fluorophenoxy)benzyl)-1-(4-(4-fluorophenoxy)-benzylidene)-1H-inden-3-yl)acetic acid], the inhibition at 3.3 µM (in experiment [1]; with HepG2 (liver cancer); in experiment [2]; in experiment [3]; in the experiment on SW480 (colon cancer) (setting [5]); in the experiment with HeLa (cervical cancer)) was no less than 50% in each case. Besides, in experiment [4], the inhibition at 3.3 µM is no less than 50%. In addition, the inhibition at 10 µM (in experiment [1]; in the experiment with HepG2 (liver cancer); in experiment [2]; in experiment [3]; in the experiment with SW480 (colon cancer) (setting [5]); in the experiment with HeLa (cervical cancer)) was no less than 50% throughout. The inhibition at 10 µM in experiment [4] is no less than 50%.

As to `CC1=C(CC(=O)O)c2cc(F)ccc2/C1=C/c1ccc(Oc2ccc(Cl)c(Cl)c2)cc1` [E21, (E)-2-(1-(4-(3,4-Dichlorophenoxy)benzylidene)-5-fluoro-2-methyl-1H-inden-3-yl)acetic acid], the inhibition at 3.3 µM in experiment [1] is 30 to 50%; in the experiment with HepG2 (liver cancer), less than 30%; in experiment [2], no less than 50%; in experiment [3] it was no less than 50%; with SW480 (colon cancer) (setting [5]), 30 to 50%; in the experiment with HeLa (cervical cancer), no less than 50%. Moreover, in experiment [4], the inhibition at 3.3 µM was less than 30%. Further, the inhibition at 10 µM (in experiment [1]; in the experiment with HepG2 (liver cancer); in experiment [2]; in experiment [3]; in the experiment on SW480 (colon cancer) (setting [5]); with HeLa (cervical cancer)) was no less than 50% each time. Besides, the inhibition at 10 µM in experiment [4] was no less than 50%. Also, the inhibition at 30 µM (in experiment [1]; in the experiment with HepG2 (liver cancer); in experiment [2]; in experiment [3]; in the experiment on SW480 (colon cancer) (setting [5]); with HeLa (cervical cancer)) was no less than 50% throughout. The inhibition at 30 µM in experiment [4] was no less than 50%.

`CC1=C(CC(=O)O)c2cc(F)ccc2/C1=C\c1cccc(CSc2ccc(F)cc2)c1` [B49, (Z)-2-(5-Fluoro-1-(3-(((4-fluorophenyl)thio)methyl)benzylidene)-2-methyl-1H-inden-3-yl)acetic acid]: the inhibition at 3.3 µM in experiment [1] was less than 30%; in the experiment with HepG2 (liver cancer), less than 30%; in experiment [2] it was no less than 50%; in experiment [3], less than 30%; in the experiment on SW480 (colon cancer) (setting [5]), less than 30%; in the experiment with HeLa (cervical cancer) it was less than 30%. Also, in experiment [4], the inhibition at 3.3 µM is no less than 50%. The inhibition at 10 µM in experiment [1] is 30 to 50%; in the experiment on HepG2 (liver cancer), no less than 50%; in experiment [2], no less than 50%; in experiment [3], 30 to 50%; with SW480 (colon cancer) (setting [5]), no less than 50%; in the experiment with HeLa (cervical cancer), no less than 50%. Moreover, the inhibition at 10 µM in experiment [4] was no less than 50%.

For `CC1=C(CC(=O)O)c2cc(C)ccc2/C1=C\c1ccc(COCc2ccc(Cl)cc2)cc1` [B149, (Z)-2-(1-(4-(((4-Chlorobenzyl)oxy)methyl)benzylidene)-2,5-dimethyl-1H-inden-3-yl)acetic acid], the inhibition at 3.3 µM in experiment [1] is 30 to 50%; in the experiment with HepG2 (liver cancer) it was less than 30%; in experiment [2], less than 30%; in experiment [3], no less than 50%; with SW480 (colon cancer) (setting [5]), less than 30%; in the experiment with HeLa (cervical cancer), less than 30%. Moreover, the inhibition at 3.3 µM in experiment [4] was less than 30%. Further, the inhibition at 10 µM in experiment [1] was no less than 50%; in the experiment on HepG2 (liver cancer), no less than 50%; in experiment [2], 30 to 50%; in experiment [3], no less than 50%; with SW480 (colon cancer) (setting [5]), 30 to 50%; with HeLa (cervical cancer), no less than 50%. In addition, the inhibition at 10 µM in experiment [4] was less than 30%.

`CCc1ccc2c(c1)/C(=C\c1ccc(COCc3ccc(F)cc3)cc1)C(C)=C2CC(=O)O` [B121, (Z)-2-(6-Ethyl-1-(4-(((4-fluorobenzyl)oxy)methyl)benzylidene)-2-methyl-1H-inden-3-yl)acetic acid]: the inhibition at 3.3 µM in experiment [1] is 30 to 50%; with HepG2 (liver cancer), less than 30%; in experiment [2], less than 30%; in experiment [3] it was no less than 50%; in the experiment with SW480 (colon cancer) (setting [5]), less than 30%; in the experiment with HeLa (cervical cancer), less than 30%. In experiment [4], the inhibition at 3.3 µM lay within 30 to 50%. Moreover, the inhibition at 10 µM in experiment [1] is no less than 50%; with HepG2 (liver cancer) it was no less than 50%; in experiment [2], less than 30%; in experiment [3], no less than 50%; in the experiment with SW480 (colon cancer) (setting [5]) it was 30 to 50%; in the experiment with HeLa (cervical cancer), no less than 50%. Moreover, in experiment [4], the inhibition at 10 µM fell in the range of 30 to 50%.

Turning to `COc1ccc2c(c1)C(CC(=O)O)=C(C)/C2=C/c1ccc(Oc2cccc(Cl)c2)cc1` [C73, (Z)-2-(1-(4-(3-Chlorophenoxy)benzylidene)-5-methoxy-2-methyl-1H-inden-3-yl)acetic acid], the inhibition at 3.3 µM is less than 30% in experiment [1]; less than 30% in the experiment on HepG2 (liver cancer); less than 30% in experiment [2]; 30 to 50% in experiment [3]; less than 30% in the experiment on SW480 (colon cancer) (setting [5]); 30 to 50% in the experiment on HeLa (cervical cancer). Besides, the inhibition at 3.3 µM in experiment [4] was 30 to 50%. Further, the inhibition at 10 µM in experiment [1] was less than 30%; in the experiment on HepG2 (liver cancer) it was less than 30%; in experiment [2], 30 to 50%; in experiment [3], no less than 50%; in the experiment on SW480 (colon cancer) (setting [5]), less than 30%; in the experiment with HeLa (cervical cancer), no less than 50%. In addition, the inhibition at 10 µM in experiment [4] is no less than 50%. Moreover, the inhibition at 30 µM in the experiment on SW480 (colon cancer) (read-out: Antiproliferative activity in cancerous cells, SW480) was in the range of 30 to 50%.
